Patent US8609870B2, “Treating various disorders using TrkB agonists” (Emory University, priority 2008, dated 2013)

Assays:
hippocampal neurons = experiment: Glutamate-triggered apoptosis in hippocampal neurons (MR(DEVD)2 / condensed nuclei); assay type: cell-based; conditions: 0.5 μM preincubated 30 min, then 50 μM glutamate 16 h
Procedure: To create and test reporter cell lines. In order to identify small molecules that mimic BDNF and activate TrkB, TrkB stably transfected murine cell lines are created. The T48 and T62 cell lines are created by transfecting basal forebrain SN56 cells, which express negligible TrkB, with a TrkB expression construct. To test expression of TrkB, the cells are treated with BDNF, which is predicted to result in strong phosphorylation of Trk-490 and Akt activation in comparison to the TrkA NTR stably expressing T17 cell line indicating expression of TrkB. To test resistance to apoptosis, the SN56 cells and the T48 cell line are either untreated or treated with BDNF, and then are subjected to an apoptotic assay. The apoptotic assay involves treating the cells with 0.75 μM Staurosporine for 9 hours, and 1 hour before completing the experiment, the cells are treated with 10 μM MR (DEVD)2. The cells then are fixed with 4% paraformaldehyde for 15 minutes, washed with phosphate buffered saline (PBS), and incubated with Hoechst 33342 for 10 minutes. Cover slides are washed with PBS, mounted, and then the cells are examined using a fluorescent microscope to see which cells turn red upon caspase cleavage.
To compare the apoptosis inhibitory activity of identified active compounds, the compounds are preincubated with SN56 and T48 cells, and subsequently are subjected to the fluorescent apoptotic assay as described above. To examine whether these identified active compounds promote neuronal survival, hippocampal neurons are prepared and the cultures are pretreated with the identified active compounds for 30 minutes, followed by treatment with 50 μM glutamate for 16 hours.
Using a cell-based screen as described above in Example 1 (based on the anti-apoptotic action of TrkB signaling) and the chemical library from the Spectrum Collection (described above), 66 positive hits were generated, four of which were gedunin derivatives. […] In this assay, neurons with both cleaved caspase (MR (DEVD)2 red cells) and condensed nuclei (DAPI staining) were counted as apoptotic cells. […]

TrkB = molecular target: T1, TrkB (Mus musculus, UniProt P15209); experiment: TrkB activation in BDNF cortex conditional knockout mice; assay type: in vivo; conditions: 5 mg/kg i.p., sacrificed at 4 hours; wild-type and BDNF −/− mice
T1 construct: Brain lysates were prepared and analyzed by immunoblotting; from tissue; host or cells: mouse brain
Excerpt: The Cortex-Specific Cre mouse line was previously described as “transgenic line C” (Chhatwal et al., Gene Ther. 14, 575-583 (2007)). Briefly, coding sequence for Cre-recombinase (Cre-IRES-DsRed2) was placed downstream of a 3 kb cholecystokinin (CCK) promoter, linearized, purified, and microinjected into the pronuclei of one-cell C57/BL6 embryos, which were then implanted into pseudopregnant C57/BL6 females. Following verification of gene expression in the different transgenic lines (Chhatwal et al., Nat. Neurosci. 9, 870-872 (2006)), the cortex-specific “line C” was crossed to a floxed-stop lacZ reporter mouse line (Soriano, Nat. Genet., 21, 70-71 (1999)) as well as the floxed BDNF mouse line (Rios et al., Mol. Endocrinol., 15, 1748-1757 (2001)). Region specific Cre gene expression and BDNF deletion were confirmed with in situ hybridization, x-gal staining for β-galactosidase expression, and Western blot for BDNF protein levels.
To examine whether deoxygedunin activating TrkB involved endogenous BDNF, BDNF conditional knockout mice with BDNF gene deletion limited to cortex (thus allowing normal development) were used. Deoxygedunin (5 mg/kg) was intraperitoneally injected into the BDNF cortex conditional knockout mice and the mice were sacrificed at 4 hours. […]

adult male rats = experiment: Transient middle cerebral artery occlusion (MCAO) stroke model; conditions: 2 h MCAO

T1 sequence (P15209 32-821): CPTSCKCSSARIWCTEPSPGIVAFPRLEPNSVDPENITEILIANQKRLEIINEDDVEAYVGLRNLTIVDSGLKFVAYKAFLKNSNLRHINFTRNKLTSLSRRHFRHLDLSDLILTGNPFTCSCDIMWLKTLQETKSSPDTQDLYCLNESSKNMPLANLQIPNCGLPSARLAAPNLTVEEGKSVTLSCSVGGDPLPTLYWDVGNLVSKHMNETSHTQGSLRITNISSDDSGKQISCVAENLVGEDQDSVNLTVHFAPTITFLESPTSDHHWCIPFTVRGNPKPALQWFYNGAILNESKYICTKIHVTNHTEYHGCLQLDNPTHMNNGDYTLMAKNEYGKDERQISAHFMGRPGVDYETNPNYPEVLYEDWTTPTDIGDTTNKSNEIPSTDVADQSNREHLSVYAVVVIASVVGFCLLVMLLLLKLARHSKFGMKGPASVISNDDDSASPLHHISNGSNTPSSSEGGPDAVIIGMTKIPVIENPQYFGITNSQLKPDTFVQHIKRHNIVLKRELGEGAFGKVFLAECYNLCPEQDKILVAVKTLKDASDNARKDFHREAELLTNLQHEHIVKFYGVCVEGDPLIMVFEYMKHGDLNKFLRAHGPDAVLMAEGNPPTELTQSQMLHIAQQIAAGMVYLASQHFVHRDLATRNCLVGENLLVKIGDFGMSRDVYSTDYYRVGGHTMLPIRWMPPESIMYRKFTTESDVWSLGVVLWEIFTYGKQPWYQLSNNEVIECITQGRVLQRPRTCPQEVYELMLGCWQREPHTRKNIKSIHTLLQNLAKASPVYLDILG

Question: For CC(=O)O[C@@H]1C[C@H]2C(C)(C)C(=O)C=C[C@]2(C)[C@H]2CC[C@]3(C)C(=CC(=O)O[C@H]3c3ccoc3)[C@@]21C [deoxygedunin], which “protective effect (apoptosis inhibitory activity)” value (hippocampal neurons) is on record?
Answer: most robust protective effect

Question: And the TrkB activation (TrkB)?
Answer: TrkB activation occurred in both wild-type and BDNF −/− mice

Question: And the “survival of ischemic insult and treatment” value (adult male rats; 5 mg/kg)?
Answer: All animals included in the study survived

Question: What about the “infarct volumes (TTC stained sections)” value (adult male rats; 5 mg/kg 5 minutes prior to reperfusion, 24 hours after MCAO) of the same molecule?
Answer: significantly reduced infarct volumes
